Laboratory results reported in PubChem BioAssay (NCI).
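Compound exposure: 48 hours, 5 concentrations, 96-well plates. GI50 marks 50% less growth. The concentration for full growth arrest is given as TGI.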

Key:
Assay in all cases: NCI-60 cell line screen, 48 h
NCI-H460 lung = tested on: NCI-H460 lung
HCC-2998 colon = tested on: HCC-2998 colon
MALME-3M melanoma = tested on: MALME-3M melanoma
MDA-MB-231 breast = tested on: MDA-MB-231 breast
M14 melanoma = tested on: M14 melanoma
HL-60(TB) leukemia = tested on: HL-60(TB) leukemia
SK-OV-3 ovarian = tested on: SK-OV-3 ovarian
CCRF-CEM leukemia = tested on: CCRF-CEM leukemia
SF-539 CNS = tested on: SF-539 CNS
SNB-75 CNS = tested on: SNB-75 CNS

Row | SMILES | GI50 (NCI-H460 lung) [µM] | TGI (NCI-H460 lung) [µM] | GI50 (HCC-2998 colon) [µM] | TGI (HCC-2998 colon) [µM] | GI50 (MALME-3M melanoma) [µM] | TGI (MALME-3M melanoma) [µM] | GI50 (MDA-MB-231 breast) [µM] | TGI (MDA-MB-231 breast) [µM] | GI50 (M14 melanoma) [µM] | TGI (M14 melanoma) [µM] | GI50 (HL-60(TB) leukemia) [µM] | TGI (HL-60(TB) leukemia) [µM] | GI50 (SK-OV-3 ovarian) [µM] | TGI (SK-OV-3 ovarian) [µM] | GI50 (CCRF-CEM leukemia) [µM] | TGI (CCRF-CEM leukemia) [µM] | GI50 (SF-539 CNS) [µM] | TGI (SF-539 CNS) [µM] | GI50 (SNB-75 CNS) [µM] | TGI (SNB-75 CNS) [µM]
1 | C=C1C(=O)O[C@H]2[C@H]1CC/C(COC(=O)NCCc1c[nH]c3ccccc13)=C\CC[C@@]1(C)O[C@@H]21 | 3.82 | 16.3 | 1.67 | 3.18 | 1.94 | 3.82 | 1.48 | 3.3 | 1.44 | 3.65 | 0.583 | 2.86 | 12.5 | 25.1 | 0.362 | 3.57 | 1.62 | 3.29 | 8.45 | 21.8
2 | COc1cc(C(=O)O)ccc1NC(=O)[C@@H]1N[C@@H](CC(C)(C)C)[C@](C#N)(c2ccc(Cl)cc2F)[C@H]1c1cccc(Cl)c1F | 0.077 | 2.27 | 4.62 | 13.3 | 0.0448 | 8.27 | 6.58 | > 100 | 3.18 | > 30.1 | 2.28 | 6.71 | 7.02 | 21.3 | 2.53 | > 26.3 | 3.63 | 11.5 | 3.35 | 20.9
3 | N#C/C(=C\c1ccc(Cl)cc1)n1nnc2cc(F)c(F)cc21 | 2.17 | 4.86 | 1.74 | 3.29 | 2.06 | 5.34 | 1.85 | 4.47 | 1.9 | 4.39 | 2.36 | 6.82 |  |  | 2.01 | > 100 | 1.97 | 3.77 | 1.51 | 3.01
4 | COc1ccc(/C(Cl)=C(\C=O)c2cc(OC)c(OC)c(OC)c2)cc1OC |  | > 100 |  | > 100 |  | > 92.6 |  | > 100 |  | > 100 |  | 58.6 |  | > 100 |  | > 100 |  | 87.9 |  | > 28.1
5 | COc1ccc2c(c1)/C(=C/c1c(-c3ccc(C)cc3)nc3sc(C)cn13)C(=O)N2 | 6.36 | 56.2 | 13.4 | 43.7 | 25.2 | > 100 | 13.3 | > 100 | 13.2 | 59.1 | 4.85 | 30.8 | 23.9 | > 100 | 6.84 | 80.3 | 20.3 | > 100 | 11.8 | > 100
6 | O=C1CN2CCC1C/C2=C\c1ccnc2c(Cl)cccc12 (configuration not stated) | 72.8 | > 100 | > 100 | > 100 | 91.9 | > 100 | 88.8 | > 100 | > 100 | > 100 | 67.4 | > 100 | > 100 | > 100 | 36.5 | > 100 | > 100 | > 100 | > 100 | > 100
7 | O=C(c1cccs1)c1c(C(F)(F)F)n([O-])c2cc(C(F)(F)F)ccc2[n+]1=O | 0.198 | 0.512 | 0.293 | 0.85 | 0.347 | 0.772 | 0.177 | 0.345 | 0.554 | 1.19 | < 0.0236 | 0.135 | 0.758 | 1.87 | 0.12 | 0.361 | 0.195 | 0.409 | 0.491 | 1.54
8 | CCC[C@H](Nc1nc(-c2ccc(NC(=O)NCC)c(OC)c2)ncc1C)c1cccnc1 | 0.0357 | 13.3 | 0.0295 | 0.874 | 13.8 | 49.1 | 0.0372 | 1.72 | 0.0282 | 0.0824 | 0.0246 | 0.0582 | 0.0365 | 15 | 0.032 |  | 0.0334 | 3.87 | 0.0489 | 22.8
9 | Cc1c(N(C(=O)c2cc(-c3cc(Cl)ccc3C(=O)N3Cc4ccccc4C[C@H]3CN3CCOCC3)n(C)c2C)c2ccc(O)cc2)cc(C#N)n1C | 31.3 | > 100 | 15.1 | 44.9 | 20.8 | 64.3 | 20.2 | > 100 | 21.8 | > 100 | 2.38 | 29.1 | 17.9 | > 100 | 8.02 | > 100 | 20.6 | > 100 | 9.79 | 30.9
10 | COc1cc(-c2ccc(-[n+]3nc(-c4ccc([N+](=O)[O-])cc4)nn3-c3ccc([N+](=O)[O-])cc3)c(OC)c2)ccc1-[n+]1nc(-c2ccc([N+](=O)[O-])cc2)nn1-c1ccc([N+](=O)[O-])cc1 | 3.02 | 11.1 | 9.21 | 29.3 | 1.89 | 4.47 | 8.6 | 34.7 | 14.9 | 67.2 | 1.91 | > 46.2 | 9.08 | 66.3 | 1.08 | > 100 | 1.8 | 3.97 | 1.3 | 2.95
11 | COc1ccc(C(=O)c2ccc(OC)cc2OC)cc1 | 3.74 | 89.5 | 6.54 | 41.3 | 5.83 | > 100 | 6.6 | 90.2 | 2.47 | > 100 | 2.94 | > 100 | 2.66 | 8.81 | 3.23 | > 100 | 2.81 | 22.4 | 1.76 | 5.57
12 | C[C@]12CC[C@H]3[C@@H](CC=C4C[C@@H](O)CC[C@@]43C)[C@@H]1C/C(=C\c1cccc(OCCCn3ccnc3)c1)[C@@H]2O | 13.8 | 31.8 | 17.8 | 34.1 | 15.7 | 35.9 | 13.2 | 32 | 13.4 | 35.7 | 8.1 | 34.3 | 16.2 | 32.7 | 13 | 68.7 | 8.01 | 23.7 | 14.1 | 28.8
